Test results as given in US20100087413A1, “Prevention and treatment of inflammation-induced and/or immune-mediated bone loss” (priority 2003, published 2010).
Where two headings read alike, the source gives them in different places. Marks after values point to notes of the source that are not given here.

What was measured:
human 11β-HSD2 = biological target: T1, human 11β-HSD2 (Homo sapiens, UniProt P80365); assay: 11β-HSD2 oxidase activity (conversion of radiolabelled cortisol to cortisone) in lysates of stably transfected HEK-293 cells; format: biochemical; details: for 11β-HSD2 % of control: 20 μM compound, 25 nM cortisol substrate, HEK-293 lysate
T1 construct: expressed in transfected cells; host or cells: HEK-293 cells, stably transfected; cell lysate
T1 sequence (P80365 1-405): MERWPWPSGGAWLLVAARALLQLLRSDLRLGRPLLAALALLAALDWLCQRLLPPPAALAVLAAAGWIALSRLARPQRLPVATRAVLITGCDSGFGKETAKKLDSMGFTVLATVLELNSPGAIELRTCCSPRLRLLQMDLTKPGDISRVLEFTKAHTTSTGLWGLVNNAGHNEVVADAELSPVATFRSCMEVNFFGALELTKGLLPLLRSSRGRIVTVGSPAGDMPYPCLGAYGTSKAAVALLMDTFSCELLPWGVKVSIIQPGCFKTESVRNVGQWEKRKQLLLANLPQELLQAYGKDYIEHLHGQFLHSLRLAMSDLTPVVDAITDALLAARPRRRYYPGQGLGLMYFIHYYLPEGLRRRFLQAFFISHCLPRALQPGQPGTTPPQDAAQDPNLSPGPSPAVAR
Description: (§1) Cells were grown in 10 cm dishes to 80% confluence and incubated for 16 h in steroid-free medium (charcoal-treated fetal calf serum (FCS) from HyClone, Logan, Utah). Cells were rinsed once with phosphate-buffered saline (PBS), detached and centrifuged for 3 min at 150×g. The supernatant was removed and the cell pellet quick-frozen in a dry-ice ethanol bath. At the day of experiment, cell pellets were resuspended in buffer TS2 (100 mM NaCl, 1 mM EGTA, 1 mM EDTA, 1 mM MgCl2, 250 mM sucrose, 20 mM Tris-HCl, pH 7.4), sonicated and activities determined immediately. The rate of conversion of cortisol to cortisone or the reverse reaction was determined in 96-well optical PCR reaction plates (Applied Biosystems, Foster City, Calif.) in a final volume of 22 μl, and the tubes were capped during the reaction to avoid evaporation.
Reactions were initiated by simultaneously adding 10 μl of cell lysate and 12 μl of TS2 buffer containing the appropriate concentration of the inhibitory compound to be tested, NAD^+, 30 nCi of [1,2,6,7-^3H]-cortisol and unlabeled cortisol. […] Stock solutions of the inhibitors in methanol or DMSO were diluted in TS2 buffer to yield the appropriate concentrations, whereby the concentration of methanol or DMSO in the reactions were kept below 0.1%. Control reactions with or without 0.1% of the solvent were performed. Incubation was at 37° C. for 10 min with shaking, reactions were terminated by adding 10 μl of stop solution containing 2 mM of unlabeled cortisol and cortisone dissolved in methanol. The conversion of radiolabeled cortisol was determined by separation of cortisol and cortisone using TLC and a solvent system of 9:1 (v/v) chloroform:methanol, followed by scintillation counting.
(§2) Enzyme kinetics were analyzed by non-linear regression using Data Analysis Toolbox (MDL Information Systems Inc.) assuming first-order rate kinetics.
(§3) Assay with 20 μM of the corresponding compound in the reaction mixture, added simultaneously with the substrate:
(§4) Determination of IC50 values, using 7 different inhibitor concentrations at factor 2 intervals: […]

human 11β-HSD1 = biological target: T2, human 11β-HSD1 (Homo sapiens, UniProt P28845); assay: 11β-HSD1 reductase activity (conversion of radiolabelled cortisone to cortisol) in lysates of stably transfected HEK-293 cells; format: biochemical; details: for 11β-HSD1 % of control: 20 μM compound, 100 nM cortisone substrate, HEK-293 lysate
T2 construct: expressed in transfected cells; host or cells: HEK-293 cells, stably transfected; cell lysate
T2 sequence (P28845 whole entry): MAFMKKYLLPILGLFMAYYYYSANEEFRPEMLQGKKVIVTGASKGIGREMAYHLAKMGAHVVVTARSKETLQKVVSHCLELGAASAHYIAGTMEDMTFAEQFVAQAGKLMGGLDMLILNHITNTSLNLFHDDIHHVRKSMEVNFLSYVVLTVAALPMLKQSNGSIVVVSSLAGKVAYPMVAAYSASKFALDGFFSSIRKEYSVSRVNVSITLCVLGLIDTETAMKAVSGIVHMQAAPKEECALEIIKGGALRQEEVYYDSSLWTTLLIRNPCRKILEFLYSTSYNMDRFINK
Description: as §1
Reactions were initiated simultaneously by adding 10 μl of cell lysate and 12 μl of TS2 buffer containing the appropriate concentration of the inhibitory compound to be tested, NADPH, 30 nCi of [1,2,6,7-^3H]-cortisone and unlabeled cortisone, whereby final concentrations were 400 μM NADPH and 100 nM cortisone. Activities were determined immediately after cell disruption by measuring the conversion of radiolabeled cortisone to cortisol for 10 min.
as §2, §3, §4

[1] = Mittelwert (mean) of the determinations, read-out: IC 50 11β-HSD2, Mittelwert
[2] = 7 inhibitor concentrations at factor 2 intervals
[3] = Mittelwert (mean) of determinations 1-3, read-out: IC 50 11β-HSD1, Mittelwert

11β-HSD2 % of control (human 11β-HSD2)	11β-HSD1 % of control (human 11β-HSD1)	SMILES	also measured
137 % of control	76.73 % of control	COc1cc(/C=N/NC(=O)CSc2nc3ccccc3n2Cc2ccc(C)cc2)cc(OC)c1OC(C)=O [BNW28]	–
115.4 % of control	75.29 % of control	CCN(CC)S(=O)(=O)c1ccc(OC)c(-c2nnc(-c3cc(S(=O)(=O)N(CC)CC)ccc3OC)o2)c1 [BNW29]	–
140 % of control	48.36 % of control	CCC(Sc1nnc(-c2ccc(OC)c(OC)c2)c(-c2ccc(OC)c(OC)c2)n1)C(=O)N(CC)CC (stereo not drawn) [BNW30]	–
97.47 % of control	69.75 % of control	Cc1n[nH]c(O)c1C(c1ccc(-c2ccc(Cl)c(C(=O)O)c2)o1)c1c(O)n[nH]c1C [BNW5]	–
132.1 % of control	85.36 % of control	CCN(CC)S(=O)(=O)c1ccc(Cl)c(C(=O)Nc2nc3ccc(S(C)(=O)=O)cc3s2)c1 [BNW12]	–
56.95 % of control	50.37 % of control	CC1(C)[C@@H](OCO)CC[C@]2(C)[C@H]3C(=O)C=C4C5=C[C@@](C)(C(=O)O)CC[C@]5(C)CC[C@@]4(C)[C@]3(C)CC[C@@H]12 [BNW15]	–
96.77 % of control	102.1 % of control	CCN(CC(O)COc1cc(C)c(Cl)c(C)c1)S(=O)(=O)O (stereo not drawn) [BNW1]	–
132.6608 % of control	85.07 % of control	COc1cccc(/C=N/NC(=O)CSCc2ccccc2C)c1OC [BNW23]	–
120.1 % of control	88.22 % of control	CCOc1ccc(C2c3cc(OCC)c(OCC)cc3CC(=O)N2c2ccc(C(=O)O)cc2)cc1OCC (stereo not drawn) [BNW17]	–
14.37* % of control	3.879* % of control	COC(=O)[C@@]1(C)CC[C@]2(C)CC[C@]3(C)C(=CC(=O)[C@@H]4[C@@]5(C)CC[C@H](Oc6ccccc6C(=O)O)C(C)(C)[C@@H]5CC[C@]43C)[C@@H]2C1 [BNW13]	IC50 (human 11β-HSD2; [1]): 281 nM; IC 50 11β-HSD2, determination 1 (human 11β-HSD2; [2]): out of range; IC50 (human 11β-HSD1; [3]): 691 nM
77.95 % of control	78.84 % of control	COc1ccc(OC)c(C2C(C(=O)c3ccc(Br)cc3)=C(O)C(=O)N2CCCn2ccnc2)c1 (stereo not drawn) [BNW2]	–
120.9 % of control	70.1 % of control	Cc1cccc(C)c1C1C(SCC(=O)Nc2c(Cl)cccc2Cl)=NN=C1c1cccc([S+]([O-])N(C)C)c1 (stereo not drawn) [BNW11]	–
13.93* % of control	2.884* % of control	C[C@H]1CC[C@]2(C)[C@H]3C(=O)C=C4[C@@H]5C[C@@](C)(C(=O)O)CC[C@]5(C)CC[C@@]4(C)[C@]3(C)CC[C@H]2C1(C)C [BNW25]	IC50 (human 11β-HSD2; [1]): 59.7 nM; IC 50 11β-HSD2, determination 1 (human 11β-HSD2; [2]): out of range; IC50 (human 11β-HSD2; determination 2, 7 inhibitor concentrations at factor 2 intervals, read-out: IC 50 11β-HSD2, determination 2): 54.6 nM; IC50 (human 11β-HSD2; determination 3, 7 inhibitor concentrations at factor 2 intervals, read-out: IC 50 11β-HSD2, determination 3): 64.9 nM; IC50 (human 11β-HSD1; [3]): 172 nM; IC50 (human 11β-HSD1; determination 1, 7 inhibitor concentrations at factor 2 intervals, read-out: IC 50 11β-HSD1, determination 1): 147 nM; IC50 (human 11β-HSD1; determination 2, 7 inhibitor concentrations at factor 2 intervals, read-out: IC 50 11β-HSD1, determination 2): 206 nM; IC50 (human 11β-HSD1; determination 3, 7 inhibitor concentrations at factor 2 intervals, read-out: IC 50 11β-HSD1, determination 3): 161 nM
120.7 % of control	46.83 % of control	COCCN1C(=O)C(O)=C(C(=O)c2ccc(OC)c(C)c2)C1c1ccc(C)cc1 (stereo not drawn) [BNW20]	–
95.05 % of control	82.24 % of control	Cc1nn(CC(=O)Nc2sc(C)c(C)c2C(N)=O)c(C)c1[N+](=O)[O-] [BNW4]	–

SMILES	11β-HSD2 % of control (human 11β-HSD2)	11β-HSD1 % of control (human 11β-HSD1)	also measured
CC(=O)OC1CC[C@]2(C)C3=C(C(=O)C[C@H]2C1(C)C)[C@]1(C)CCC(C(C)CCC(=O)O)[C@@]1(C)CC3=O (stereo partly drawn) [BNW16]	27.37 % of control	2.708* % of control	IC50 (human 11β-HSD2; [1]): 3950 nM; IC 50 11β-HSD2, determination 1 (human 11β-HSD2; [2]): out of range; IC50 (human 11β-HSD1; [3]): 144 nM
COc1cc2c(cc1OC)C(COc1ccc([N+](=O)[O-])cc1)N(C(=O)c1ccc(Cl)c([N+](=O)[O-])c1)CC2 (stereo not drawn) [BNW27]	126.4 % of control	78.64 % of control	–
